{
  "source": "patent EP2253308A1",
  "about": "“Pharmaceutical composition comprising microbubbles for targeted tumor therapy” (Ludwig-Maximilians-Universität München, priority 2009, dated 2010)",
  "test_system": "293/KDR human kidney carcinoma tissue cultures",
  "test": "In vitro anti-proliferative efficacy, cell viability assay (formazan absorption) with or without ultrasound",
  "assay_type": "cell-based",
  "details": "effect not affected by the application of ultrasound; 24 hours incubation; % of untreated cells",
  "procedure": "The anti-proliferative efficacy of doxorubicin-loaded microbubbles according to Example 2 was determined in an in vitro experiment using 293/KDR human kidney carcinoma tissue cultures.\nFirst, the cells were cultivated in 10% fetal calf serum activated Dulbecco's Modified Eagle Medium. Prior to the experiment, the cells were brought in suspension by trypsin/EDTA solution. A cell suspension of 200 µl containing about 6 x 10^4 cells was transferred into each well of a 96-well plate (Greiner Bio-One GmbH, Germany) and subsequently admixed with an aqueous solution of either doxorubicin, doxorubicin-loaded liposomes, or doxorubicin-loaded microbubbles (n = 10). The corresponding blank samples were prepared without doxorubicin (see Figure 3). Ultrasound with a frequency of 1 MHz, an intensity of 2 W/cm^2, and a duty cycle of 50% was applied directly onto each well using Sonitron 2000 (Rich-Mar Inc., USA). In order to avoid the presence of standing waves, the well plate was under laid with an absorbing gel pad.\nAfter 24 hours of incubation the cell metabolic activity was measured using a cell viability assay. […] Purple formazan produced by viable cells could be measured by its UV/Vis absorption using FluostarOmega plate reader (BMG Labtech GmbH, Offenburg, Germany) at a wavelength of 590 nm (measurement) and a wavelength of 630 nm (reference). […]",
  "data": [
    {"smiles": "COc1cccc2c1C(=O)c1c(O)c3c(c(O)c1C2=O)C[C@@](O)(C(=O)CO)C[C@@H]3O[C@H]1C[C@H](N)[C@H](O)[C@H](C)O1", "note": "[free doxorubicin]", "values": [
      {"measurement": "cell viability", "value": "62-64%"}
    ]}
  ]
}
